Laboratory results from PubChem BioAssay AID330 (DTP/NCI, 2004).
Where “and” joins values, the source holds several entries; their conditions need not be identical. Equal values may be shown once. Toxic doses and inconclusive results are not listed.

Test system: P388 leukemia ip, CD2F1 mice, survival T/C
Test: NCI In Vivo Anticancer Drug Screen. Data for tumor model P388 Leukemia (intraperitoneal) in CD2F1 (CDF1) mice
Conditions: endpoint: median survival time, higher = longer survival
Procedure, shortened: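 Mice carrying the transplanted tumor received test compound or vehicle. Survival was recorded in each group, and the value is the treated-group measurement divided by that of the vehicle-treated control group.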

[1] = dose: 50.0 mg/kg/injection, schedule: Q01DX009 (ip), vehicle: Klucel (hydroxypropylcellulose) (HPC)
[2] = dose: 100.0 mg/kg/injection, schedule: Q01DX009 (ip), vehicle: Klucel (hydroxypropylcellulose) (HPC)
[3] = dose: 200.0 mg/kg/injection, schedule: Q01DX009 (ip), vehicle: Klucel (hydroxypropylcellulose) (HPC)
[4] = dose: 50.0 mg/kg/injection, schedule: Q01DX005 (ip), vehicle: saline with Tween-80
[5] = dose: 100.0 mg/kg/injection, schedule: Q01DX005 (ip), vehicle: saline with Tween-80
[6] = dose: 200.0 mg/kg/injection, schedule: Q01DX005 (ip), vehicle: saline with Tween-80

SMILES: COC(=O)C(C(=O)OC)=C1C(=O)OCC1(C)C
- T/C (dose: 100.0 mg/kg/injection, schedule: Q04DX003 (ip), vehicle: saline): 101 % of control
- T/C (dose: 200.0 mg/kg/injection, schedule: Q04DX003 (ip), vehicle: saline): 100 % of control
- T/C (dose: 400.0 mg/kg/injection, schedule: Q04DX003 (ip), vehicle: saline): 100 % of control

SMILES: CCCCCCCCCCCCCCCCN1CCS(=O)(=O)CC1
- T/C [1]: 108 % of control
- T/C [2]: 100 % of control and 98 % of control
- T/C [3]: 101 % of control and 88 % of control

SMILES: COC(=O)C1=C(C(=O)OC)[C@@H]2CCC[C@H]1[C@H]1[C@@H]2N=NN1c1ccccc1
- T/C [4]: 100 % of control
- T/C [5]: 98 % of control
- T/C [6]: 100 % of control

SMILES: OCC[CH2][Pb]([c]1ccccc1)([c]1ccccc1)[c]1ccccc1
- T/C (dose: 0.78 mg/kg/injection, schedule: Q01DX009 (ip), vehicle: Klucel (hydroxypropylcellulose) (HPC)): 98 % of control and 105 % of control
- T/C (dose: 1.56 mg/kg/injection, schedule: Q01DX009 (ip), vehicle: Klucel (hydroxypropylcellulose) (HPC)): 100 % of control and 104 % of control and 111 % of control
- T/C (dose: 3.13 mg/kg/injection, schedule: Q01DX009 (ip), vehicle: Klucel (hydroxypropylcellulose) (HPC)): 104 % of control and 110 % of control and 112 % of control
- T/C (dose: 6.25 mg/kg/injection, schedule: Q01DX009 (ip), vehicle: Klucel (hydroxypropylcellulose) (HPC)): 113 % of control and 118 % of control

SMILES: O=[N+]([O-])c1ccc(SC(=S)N2CCCCC2)c([N+](=O)[O-])c1
- T/C [1]: 105 % of control
- T/C [2]: 106 % of control
- T/C [3]: 111 % of control

SMILES: CC1(C)C2CCC(C2)C1C(=O)CCN1CCc2ccccc2C1 (stereo not drawn)
- T/C (dose: 12.5 mg/kg/injection, schedule: Q01DX009 (ip), vehicle: saline with Tween-80): 106 % of control
- T/C (dose: 25.0 mg/kg/injection, schedule: Q01DX009 (ip), vehicle: saline with Tween-80): 107 % of control
- T/C (dose: 50.0 mg/kg/injection, schedule: Q01DX009 (ip), vehicle: saline with Tween-80): 107 % of control

SMILES: c1ccc([Te][Te]c2ccccc2)cc1
- T/C [4]: 163 % of control
- T/C [6]: 105 % of control

SMILES: O=C(O)C1=C(C(=O)Nc2ccc(NC(=O)C3=C(C(=O)O)CCC3)cc2)CCC1
- T/C (dose: 12.5 mg/kg/injection, schedule: Q01DX009 (ip), vehicle: distilled water + Tween-80): 93 % of control
- T/C (dose: 25.0 mg/kg/injection, schedule: Q01DX009 (ip), vehicle: distilled water + Tween-80): 98 % of control
- T/C (dose: 50.0 mg/kg/injection, schedule: Q01DX009 (ip), vehicle: distilled water + Tween-80): 97 % of control
- T/C (dose: 100.0 mg/kg/injection, schedule: Q01DX009 (ip), vehicle: distilled water + Tween-80): 105 % of control
- T/C (dose: 200.0 mg/kg/injection, schedule: Q01DX009 (ip), vehicle: distilled water + Tween-80): 115 % of control

SMILES: CC(=O)c1ccccc1NC(=O)COc1ccccc1OCC(=O)Nc1ccccc1C(C)=O
- T/C [4]: 100 % of control
- T/C [5]: 92 % of control
- T/C [6]: 96 % of control

SMILES: CNC(=O)Oc1ccc(OC2OC(CO)C(O)C(O)C2O)c2ccccc12 (stereo not drawn)
- T/C (dose: 100.0 mg/kg/injection, schedule: Q01DX001 (ip), vehicle: saline): 101 % of control
- T/C (dose: 200.0 mg/kg/injection, schedule: Q01DX001 (ip), vehicle: saline): 104 % of control
- T/C (dose: 400.0 mg/kg/injection, schedule: Q01DX001 (ip), vehicle: saline): 103 % of control

SMILES: COc1cc(OC)c2c(=O)c3cccc([N+](=O)[O-])c3n(C)c2c1
- T/C (dose: 100.0 mg/kg/injection, schedule: Q01DX001 (ip), vehicle: saline with Tween-80): 104 % of control
- T/C (dose: 200.0 mg/kg/injection, schedule: Q01DX001 (ip), vehicle: saline with Tween-80): 100 % of control
- T/C (dose: 400.0 mg/kg/injection, schedule: Q01DX001 (ip), vehicle: saline with Tween-80): 98 % of control

SMILES: CNc1ccc(O)cc1
- T/C (dose: 5.0 mg/kg/injection, schedule: Q01DX009 (ip), vehicle: saline sonified): 100 % of control
- T/C (dose: 10.0 mg/kg/injection, schedule: Q01DX009 (ip), vehicle: saline sonified): 104 % of control
- T/C (dose: 20.0 mg/kg/injection, schedule: Q01DX009 (ip), vehicle: saline sonified): 100 % of control
